Reference: PubChem BioAssay (NCI)
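Grown in 96-well plates, cells were treated for 48 hours with each compound at five concentrations. Insufficient inhibition: endpoint recorded as highest concentration tested. Definition used: TGI = concentration required for complete inhibition of growth.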

Columns and labels:
Assay in all cases: NCI tumour cell line growth inhibition, 48 h
786-0 renal = test system: 786-0 renal
A549 NSCLC = test system: A549 NSCLC
ACHN renal = test system: ACHN renal
CAKI-1 renal = test system: CAKI-1 renal
CCRF-CEM leukemia = test system: CCRF-CEM leukemia
COLO 205 colon = test system: COLO 205 colon
DLD-1 colon = test system: DLD-1 colon
DMS 114 small cell lung = test system: DMS 114 small cell lung
DMS 273 small cell lung = test system: DMS 273 small cell lung
EKVX NSCLC = test system: EKVX NSCLC
HCC-2998 colon = test system: HCC-2998 colon
HCT-116 colon = test system: HCT-116 colon
HCT-15 colon = test system: HCT-15 colon
HL-60(TB) leukemia = test system: HL-60(TB) leukemia
HOP-18 NSCLC = test system: HOP-18 NSCLC
HOP-62 NSCLC = test system: HOP-62 NSCLC
HOP-92 NSCLC = test system: HOP-92 NSCLC
HT29 colon = test system: HT29 colon
K-562 leukemia = test system: K-562 leukemia
KM20L2 colon = test system: KM20L2 colon
LOX IMVI melanoma = test system: LOX IMVI melanoma
LXFL 529 NSCLC = test system: LXFL 529 NSCLC
M14 melanoma = test system: M14 melanoma
M19-MEL melanoma = test system: M19-MEL melanoma
MALME-3M melanoma = test system: MALME-3M melanoma
MOLT-4 leukemia = test system: MOLT-4 leukemia
NCI-H226 lung = test system: NCI-H226 lung
NCI-H23 lung = test system: NCI-H23 lung
NCI-H460 lung = test system: NCI-H460 lung
NCI-H522 lung = test system: NCI-H522 lung
OVCAR-3 ovarian = test system: OVCAR-3 ovarian
OVCAR-4 ovarian = test system: OVCAR-4 ovarian
OVCAR-5 ovarian = test system: OVCAR-5 ovarian
OVCAR-8 ovarian = test system: OVCAR-8 ovarian
RPMI-8226 leukemia = test system: RPMI-8226 leukemia
RXF 393 renal = test system: RXF 393 renal
RXF-631 renal = test system: RXF-631 renal
SF-268 CNS = test system: SF-268 CNS
SF-295 CNS = test system: SF-295 CNS
SF-539 CNS = test system: SF-539 CNS
SK-MEL-2 melanoma = test system: SK-MEL-2 melanoma
SK-MEL-28 melanoma = test system: SK-MEL-28 melanoma
SK-OV-3 ovarian = test system: SK-OV-3 ovarian
SN12C renal = test system: SN12C renal
SNB-75 CNS = test system: SNB-75 CNS
SNB-78 CNS = test system: SNB-78 CNS
SR leukemia = test system: SR leukemia
SW-620 colon = test system: SW-620 colon
U251 CNS = test system: U251 CNS
UACC-62 melanoma = test system: UACC-62 melanoma
UO-31 renal = test system: UO-31 renal

Measured: TGI

O=C(O/N=C1\CCCC\C1=C/c1ccccc1)c1ccc([N+](=O)[O-])cc1
> 100 µM: all assays above
